Key:
in vivo [1] = conditions: dog, iv, 0.5 mg/kg
in vitro [2] = conditions: human, liver microsomes
in vivo [3] = conditions: dog, po, 0.2 mg/kg
in vivo [4] = conditions: dog, iv, 0.5 mg/kg; remark: listed apart in the source
in vitro [5] = conditions: dog, liver microsomes
in vivo [6] = conditions: dog, po, 0.2 mg/kg; remark: listed apart in the source
physchem = conditions: octanol/water
Canis familiaris = species: Canis familiaris; conditions: dog, in vivo, po, 0.2 mg/kg

Vd (in vivo [1]) | half-life (in vitro [2]) | bioavailability (in vivo [3]) | clearance (in vivo [4]) | half-life (in vitro [5]) | half-life (in vivo [6]) | logP (physchem) | t1/2 (Canis familiaris) | Structure (SMILES)
4 L/kg | 0.0833 h | 0.2% | 70 mL/min/kg |  |  |  |  | COc1ccc(-n2nc(S(C)(=O)=O)c3c2C(=O)N(c2ccc(C4(Cn5ccnc5C)CC4)cc2)CC3)cc1.O=C(O)C(F)(F)F
7.1 L/kg | > 3.33 h | 6% | 28.3 mL/min/kg | 1 h | 4 h |  |  | COc1ccc(-n2nc(C(N)=O)c3c2C(=O)N(c2ccc(C4(CN5CCCC5)CC4)cc2)CC3)cc1.O=C(O)C(F)(F)F
7.7 L/kg | 0.617 h | 100% | 55 mL/min/kg |  | 2.3 h |  |  | COc1ccc(N2N=C(S(C)(=O)=O)C3CCN(c4ccc(C5(CN6CCCC6)CC5)cc4)C(=O)C32)cc1.O=C(O)C(F)(F)F (centres undefined)
 |  |  |  |  |  | 3.3 |  | COc1ccc(-n2nc(C(N)=O)c3c2C(=O)N(c2ccc(C4(CN5CCOCC5)CC4)cc2)CC3)cc1
 |  |  |  |  |  | 4 |  | COc1ccc(-n2nc(C#N)c3c2C(=O)N(c2ccc(C4(CN5CCOCC5)CC4)cc2)CC3)cc1
 |  |  |  |  |  | 3.2 |  | CNCC1(c2ccc(N3CCc4c(C(F)(F)F)nn(-c5ccc(OC)cc5)c4C3=O)cc2)CC1
 |  |  |  |  |  | 3.4 |  | COc1ccc(-n2nc(C(F)(F)F)c3c2C(=O)N(c2ccc(C4(CN5CCCC5)CC4)cc2)CC3)cc1
 |  |  |  |  |  | 3.4 |  | COc1ccc(-n2nc(C(F)(F)F)c3c2C(=O)N(c2ccc(C4(CN(C)C)CC4)cc2)CC3)cc1
4.4 L/kg | 2.43 h | 15% | 30 mL/min/kg | 0.6 h | 1.6 h |  |  | CNC1(c2ccc(N3CCc4c(C(N)=O)nn(-c5ccc(OC)cc5)c4C3=O)cc2)CC1.O=C(O)C(F)(F)F
0.65 L/kg | 1.62 h | 27% | 8.17 mL/min/kg | 1.65 h | 1.9 h |  |  | COc1ccc(-n2nc(C(N)=O)c3c2C(=O)N(c2ccc(C4(CC(N)=O)CC4)cc2)CC3)cc1.O=C(O)C(F)(F)F
4.1 L/kg | 0.783 h | 67% | 20 mL/min/kg | 3 h | 4.3 h |  |  | COc1ccc(-n2nc(C(N)=O)c3c2C(=O)N(c2ccc(C4(N(C)CCO)CC4)cc2)CC3)cc1.O=C(O)C(F)(F)F
1.9 L/kg | 0.417 h | 61% | 13.3 mL/min/kg |  | 4 h |  |  | COc1ccc(-n2nc(S(C)(=O)=O)c3c2C(=O)N(c2ccc(C4(CN5CCOCC5)CC4)cc2)CC3)cc1.O=C(O)C(F)(F)F
0.2 L/kg | 0.167 h | 3.1% | 4.17 mL/min/kg | 0.183 h | 0.99 h |  |  | COc1ccc(-n2nc(C(N)=O)c3c2C(=O)N(c2ccc(C4(CN5CCCC5=O)CC4)cc2)CC3)cc1.O=C(O)C(F)(F)F
11.7 L/kg | 2.97 h | 41% | 22.8 mL/min/kg | 1.22 h | 6.4 h | 2.5 |  | COc1ccc(-n2nc(C#N)c3c2C(=O)N(c2ccc(C4(CN(C)C)CC4)cc2)CC3)cc1.O=C(O)C(F)(F)F
0.2 L/kg |  |  | 0.333 mL/min/kg |  |  |  |  | COc1ccc(-n2nc(C(N)=O)c3c2C(=O)N(c2ccc(N4CCCCC4=O)cc2)CC3)cc1 [APIXABAN]
 |  |  |  |  |  |  | 3.4 h | CN(C)Cc1nccn1-c1ccc(NC(=O)c2cc(C(F)(F)F)nn2-c2ccc3onc(N)c3c2)c(F)c1 [RAZAXABAN]
